{"source": "patent US20020183333A1", "about": "“Compositions and methods for chemotherapy having reduced nephrotoxicity” (priority 2000, published 2002)", "key": {"LLC-WRC 256 cells [1]": {"tested_on": "LLC-WRC 256 cells", "experiment": "Antineoplastic efficacy of CP by trypan blue exclusion assay (percentage of non-viable cells)", "format": "cell-based, rat", "conditions": "for effect of the inhibitor on the antineoplastic efficacy of cisplatin: 30 min preincubation with DFO 1 mM, DMSO 5 mM, CM 2 mM or PB 1 mM, then cisplatin 500 μg/ml for 5 hours, FIGS. 2 and 3", "experimental": "LLC-WRC 256 cells (Walker rat carcinoma cells) purchased from American Type Culture Collection (ATCC, Rockville, Maryland) were maintained in 75 cm^2 tissue culture flasks containing Medium 199 supplemented with 5% fetal bovine serum (Gibco, Gaithersburg, Md.) in a humidified atmosphere of 95% air-5% CO2 at 37° C. For the experimental study, the cell monolayers were subcultured with 0.25% trypsin into a 12-well tissue culture plate until confluence. The antineoplastic efficacy of CP in LLC-WRC 256 cells was measured by the cell viability determined by the trypan blue exclusion assay. Cells failing to exclude the dye were considered non-viable, and data expressed as the percentage of non-viable cells. Antineoplastic efficacy of CP was examined as previously described (Rawlings and Roberts, 1986, Mutation Research 166(2): 157-168.). The cells were incubated with various concentrations of CP (0-600 μg/ml) at different time points (0-6 h) in HBSS at 37° C. At the end of the incubation, the cell viability was determined. Confluent LLC-WRC 256 cell monolayer was incubated with antineoplastic dose of CP for a period of time necessary to induce consistent antineoplastic activity (CP 500 μg/ml in HBSS for 5 hours at 37° C., based on the. initial observation). The cell monolayers were preincubated with iron chelator, deferoxamine (1 mM) or hydroxyl radical scavenger, dimethyl sulfoxide (5 mM) at 37° C. for 30 minutes, washed twice with HBSS and then followed by the addition of CP. LLC-WRC 256 cell monolayers were preincubated with cimetidine (2 mM) or piperonyl butoxide (1 mM) at 37° C. for 30 min, washed with HBSS twice and then followed by the addition of CP (500 μg/ml for 5 hours at 37° C.)"}, "LLC-WRC 256 cells [2]": {"tested_on": "LLC-WRC 256 cells", "experiment": "Catalytic iron release into the medium, bleomycin assay", "format": "cell-based, rat", "conditions": "CP 500 μg/ml for 2.5 hours, n=6; control 2.44±0.59", "experimental": "Confluent […] 256 cells were washed twice with Chelex-treated HBSS and then incubated with a cytotoxic, dose of CP in Chelex-treated HBSS for a period of time before substantial cell killing occurred (500 μg/ml for 2.5 hours at 37° C., based on the time course study). The catalytic iron released into the medium was measured by the bleomycin assay, as described below. Iron capable of catalyzing free radical reactions (catalytic iron) was measured by the bleomycin assay as utilized in our previous studies (Baliga et al. , 1998, Kidney Int. 53:394-401, and Baliga et al., 1998, Kidney Int. 54:1562-1569). All reagents except for the experimental samples were made up in Chelex-treated pyrogen-free water and shaken with Chelex 100 to remove as much contaminating iron as possible. The reaction mixture contained in order: 0.5 ml of calf thymus DNA (1 mg/ml), 0.05 ml of bleomycin sulfate (1 mg/ml), 0.1 ml MgCl2 (50 mM), 0.1 ml of sample, 0.1 ml of ascorbic acid (8 mM), and either HCl (50 mM) or NaOH (50 mM) to adjust pH in the range of 7.2-7.8. […] The reaction mixture was then heated at 100° C. for 15 minutes, cooled and the resulting chromogen measured using spectrophotometer at A 532 nm. The amount of bleomycin detectable iron in the test sample was calculated from the standard curve and the results expressed as nmol/mg cellular protein recovered from the cell monolayer."}, "LLC-WRC 256 cells [3]": {"tested_on": "LLC-WRC 256 cells", "experiment": "Hydroxyl radical formation, deoxyribose degradation method", "format": "cell-based, rat", "conditions": "CP 500 μg/ml for 2.5 hours, n=4; control 0.45±0.03", "experimental": "Confluent cell monolayers were washed with HBSS and then incubated with cytotoxic dose of CP in HBSS at 37° C. for a period of time before substantial cell killing occurred (500 μg/ml for 2.5 hours). 2-deoxy-D-ribose at a final concentration of 3 mM was added to the medium just prior to the incubation. At the end of the incubation, the medium was collected for the measurement of hydroxyl radical formation by deoxyribose degradation method as described by Halliwell et al., 1988, Meth. Biochem. Anal 33:59-90. In brief, 0.5 ml of the incubation medium was mixed with 0.5 ml of 1% (w/v). 5 thiobarbituric acid in 50 mM NaOH and 0.5 ml of 2.8% (w/v) aqueous trichloroacetic acid, heated at 100° C. for 15 min, cooled and followed by extraction with 1.5ml n-butanol. The absorbance at 532 nm of the resulting supernatant was then taken, and the hydroxyl radical level was calculated by using the extinction coefficient of 156 mM^−1 cm^−1."}, "[4]": {"tested_on": "cardiotoxicity induced by doxorubicin", "conditions": "women with breast cancer; cited from earlier work"}}, "note": "Entries after “also recorded” stand apart in the source; their conditions may differ."}
{"smiles": "CN/C(=N/CCSCc1nc[nH]c1C)NC#N", "note": "[CM, cimetidine]", "values": [{"measurement": "effect of the inhibitor on the antineoplastic efficacy of cisplatin", "setting": "LLC-WRC 256 cells [1]", "result": "does not reduce the antineoplastic efficacy of CP; also recorded: do not effect the antineoplastic activity of CP"}]}
{"smiles": "N.N.[Cl][Pt][Cl]", "note": "[CP, cisplatin]", "values": [{"measurement": "time of exposure that results in significant cell death", "setting": "LLC-WRC 256 cells [1]; CP 500 μg/ml, time course 0-6 hours, FIG. 1B", "result": 5, "unit": "h"}, {"measurement": "low dose at which significant cell death occurs", "setting": "LLC-WRC 256 cells [1]; LLC-WRC 256 cells, 4 hour incubation, CP 0-600 μg/ml, FIG. 1A", "result": 50, "unit": "µg/mL"}, {"measurement": "CP dose required to produce submaximal injury", "setting": "LLC-WRC 256 cells [1]; LLC-WRC 256 cells, concentration dependent effects, FIG. 1A", "result": 500, "unit": "µg/mL"}, {"measurement": "catalytic iron release", "setting": "LLC-WRC 256 cells [2]", "result": "2.78±0.41", "unit": "nmol/mg protein"}, {"measurement": "generation of hydroxyl radical", "setting": "LLC-WRC 256 cells [3]", "result": "0.41±0.03", "unit": "nmol/mg protein"}]}
{"smiles": "C[S+](C)[O-]", "note": "[DMSO, dimethyl sulfoxide]", "values": [{"measurement": "effect of the inhibitor on the antineoplastic efficacy of cisplatin", "setting": "LLC-WRC 256 cells [1]", "result": "CP still functions as an antineoplastic compound; also recorded: does not reduce the antineoplastic efficacy of CP"}]}
{"smiles": "C[C@@H](CN1CC(=O)NC(=O)C1)N1CC(=O)NC(=O)C1", "note": "[dexrazoxane]", "values": [{"measurement": "effect on frequency and severity of doxorubicin-induced cardiotoxicity", "setting": "[4]", "result": "decrease the frequency and severity of cardiotoxicity"}]}
